Reference: patent publication US6750212B2, “Photochemotherapeutic compositions” (PhotoCure AS, priority 1997, dated 2004)

What was measured:
[1] = system: Colon carcinoma WiDr; experiment: PDT of WiDr colon carcinoma in nude mice, Curelight broad-band lamp one hour after drug, regression/regrowth time; format: in vivo, Balb/c nu/nu nude mice; details: for effect on tumor growth after PDT: Example 5.1, FIG. 4, 5-ALA 250 mg/kg i.p. and/or chlorin e6 1 mg/kg i.v., lamp 161 mW/cm^2 15 minutes, one hour after injection; for anti-tumour effect after PDT: Example 5.2, FIG. 5, ALA-methyl ester 273 mg/kg i.p. and/or A1PcS2a 1 mg/kg i.v.
Description: 5-ALA (ALA) and ALA-Methyl ester (ME) were dissolved in isotonic saline to a final concentration of […].
ALA-Butyl ester (BU) was dissolved in a small amouont of ethanol and diluted further in isotonic saline to a final concentration of […] (final ethanol concentration was 2% v/v).
Aluminium phthalocyanine di-sulfonate (A1PcS2a) (Porphyrin Products Inc.) dissolved in a few drops of 1M NaOH and diluted in phosphate buffered saline (PBS, 10 MM Na-phosphate pH 7.4/150 mM NaCl) to a final concentration of 0.25 mg/ml.
Chlorin e6 (e6)(Porphyrin Products Inc.) was dissolved in PBS to a final concentration of 0.25 mg/ml.
ALA, ALA methyl ester or ALA butyl ester were administered intraperitoneally (i.p.), whereas the sensitizers were injected intravenously (i.v.).
All animals received the same amount of ALA (1.5 mmole), either as the free acid or in the form of an ester. […]
Suspensions of the human tumour (Colon carcinoma WiDr-propagated by serial transplantation) was prepared from non-necrotic areas of the respective tumours and injected (20 μl) into the right hind foot of each mouse. […] Injection volume: 100 μl per mouse (approx. 25 g bodyweight).
Illumination occurred one hour after injection of the drugs instead of three hours that was used in previous examples. In contrast to previous examples, a broad-band lamp that covers the range of 600 to 700 nm (Curelight, patent applied for by PhotoCure AS) was used instead of the laser. This was because the light should cover combinations of phthalocyanines (absorption maximum 670 nm) and protoporphyrin IX (absorption maximum 630 nm) induced by ALA or ALA-esters, respectively.
The average tumour volume in each group (mean ±SD) was calculated and plotted against time. The experiment was terminated when the tumor volume had reached 4-5 times the initial volume.
One hour after injection of the drugs the mice were irradiated using the Curelight broad-band lamp (161 mW/cm^2 for 15 minutes-144.9 J/cm^2).
Responses of the tumors were evaluated as regression/regrowth time. The size of the tumours were measured every second day and the tumour volumes calculated according to the formula in Example 2. The mice were sacrificed when the tumour volume had reached 5 times the initial volume. For each time point, the mean (and the standard deviation of the mean) tumour volume (n=4-5) were calculated. The data were then submitted to statistical analysis (Q-test/90% confidence interval) and extreme values were rejected.

[2] = system: WiDr human colonic carcinoma; experiment: PDT of WiDr human colonic carcinoma in nude mice, laser light 3 hours after drug, tumor regression/regrowth time; format: in vivo, Balb/c nu/nu nude mice
Text: 5-aminolevulinic acid (ALA) hydrochloride was purchased from Sigma Chemical Company (St. Louis, Mo.). ALA was freshly dissolved in isotonic saline and given intraperitoneally to mice. PHOTOFRIN® vascular stroma-localizing photosensitizer was obtained from Quadra Logic Technologies (Vancouver, Canada). The solution of PHOTOFRIN® vascular stroma-localizing photosensitizer was made up in isotonic solution containing 5% dextrose and given to mice intravenously via the tail vein.
Female Balb/c nu/nu nude mice were obtained from The Animal Department, The Norwegian Radium Hospital, housed 10 per cage and kept under specific-pathogen-free conditions. The mice were 6 weeks old and weighed 20-22 g when the experiments started. The WiDr human colonic carcinoma, used in the present study, was propagated by serial transplantation into the nude mice. Non-necrotic tumor material for inoculation was obtained by sterile dissection of large flange tumors from syngeneic mice. Macroscopically viable tumor tissue was gently minced with a pair of scissors and forced repeatedly through sterile needles of diminishing sizes from 19-gauge to 25-gauge to make a tumor-tissue suspension, 0.02 ml of which was then injected into the dorsal side of the right hind foot of each mouse. The rate of successful transplantations was nearly 100% in the present experiments. […] The tumor volume was calculated using the following formula: […]
where D1, D2 and D3 are three orthogonal diameters of the tumors which were measured daily by a caliper.
Unanesthetized mice were fixed in Lucite jigs specially designed for irradiation. The tumor area was exposed to red light from a dicyanomethylane-2-methyl-6-(p-dimethylaminostyryl)-4 H-pyran (DCM) dye laser pumped by a 5W argon ion laser (Spectra Physics, 164). The tuning range was 610-690 nm. The dye laser was tuned at 632 for both ALA-derived PpIX and PHOTOFRIN®vascular stroma-localizing photosensitizer, the tuning being controlled by means of a monochromator. […]
Responses of the treated tumors were evaluated as described previously.

[3] = system: Human rectal papillary villous adenomas; experiment: Fluorescence localization in human rectal papillary villous adenomas by fluorescence microscopy; format: in vivo; details: 4.5 hours after oral administration of 60 mg/kg ALA; FIG. 3 B
Description: Human rectal papillary villous adenomas from 2 patients with severe dysplasia and with a diarrheal history for some months before diagnosis were sampled 44 hours after intravenous injection of 2 mg/kg body weight PHOTOFRIN® vascular stroma-localizing photosensitizer or 4.5 hours after oral administration of 60 mg/kg ALA. The samples were immediately immersed in liquid nitrogen, then mounted in medium (Tissue Tek II embedding compound: BDH, Poole, UK). Frozen tissue sections were cut with a cryostat to a thickness of 8 Am and mounted on clean glass slides. The fluorescence localization patterns of ALA-induced PpIX and PHOTOFRIN were studied by fluorescence microscopy. The fluorescence microscopy was carried out with an Axioplan microscope (Zeiss, Germany). The filter combination comprised a 390-440 nm excitation filter, a 460 nm beam splitter and a >600 nm emission filter. The fluorescence images were recorded by a CCD camera (Astromed CCD 3200, Cambridge, UK) and an image processing unit (Astromed/Visilog, PC 486DX2 66 MHz VL).

[4] = Example 5.4, FIG. 7, 5-ALA butyl ester 338 mg/kg i.p. and/or A1PcS2a 1 mg/kg i.v., lamp one hour after injection
[5] = Example 3, FIG. 2, ALA 250 mg/kg i.p. (632 nm) and/or m-THPC 75 μg/kg i.v. (652 nm), laser light 3 hours after drug
[6] = Example 5.5, FIG. 8, 5-ALA methyl ester 273 mg/kg i.p. and/or A1PcS4 1 mg/kg i.v., lamp one hour after injection

## CCCCOC(=O)CCC(=O)CN [ALA butyl ester, 5-ALA butyl ester]
[1]; Example 5.3, FIG. 6, 5-ALA butyl ester 338 mg/kg i.p. alone, lamp one hour after injection
  time for tumours to reach 4 times the initial volume: 11 days
[1]; [4]
  effect on tumour growth after PDT: almost no effect

## NCC(=O)CCC(=O)O [ALA, 5-aminolevulinic acid]
[2]; Example 2, FIG. 1, ALA 250 mg/kg i.p. and/or PHOTOFRIN 1 mg/kg i.v., laser 632 nm, 150 mW/cm^2 for 15 min, 3 hours after drug
  effect on tumor growth after PDT: had an effect on the tumor growth
[2]; [5]
  effect on tumor growth after PDT: had an effect on the tumor growth
[1]
  effect on tumor growth after PDT: had no effect
[3]
  fluorescence localization of ALA-induced porphyrins in tumor tissue: almost entirely localized within the tumor cells

## COC(=O)CCC(=O)CN [ALA-methyl ester, 5-ALA methyl ester]
[1]; lamp one hour after injection
  anti-tumour effect after PDT: had no anti-tumour effect
[1]; [6]
  effect on tumour growth after PDT: did not have any effect on tumor growth

## C=Cc1c(C)c2cc3nc(c(CC(=O)O)c4[nH]c(cc5nc(cc1[nH]2)C(C)=C5CC)c(C)c4C(=O)O)[C@@H](CCC(=O)O)[C@@H]3C [chlorin e6]
[1]
  effect on tumor growth after PDT: had no effect

## Oc1cccc(-c2c3nc(c(-c4cccc(O)c4)c4ccc([nH]4)c(-c4cccc(O)c4)c4nc(c(-c5cccc(O)c5)c5ccc2[nH]5)CC4)C=C3)c1 [m-THPC, tetra(meso-hydroxyphenyl)chlorin]
[2]; [5]
  effect on tumor growth after PDT: no effect

## Aluminium phthalocyanine di-sulfonate [A1PcS2a]
[1]; lamp one hour after injection
  anti-tumour effect after PDT: a slight effect
[1]; [4]
  effect on tumour growth after PDT: immediate effect
[1]; Example 5.4, FIG. 7, A1PcS2a 1 mg/kg i.v. alone, lamp one hour after injection
  time to 4× initial tumour volume: ≤ 14 days

## Aluminium phthalocyanine tetra-sulfonate [A1PcS4]
[1]; Example 5.3, FIG. 6, 5-ALA butyl ester 338 mg/kg i.p. and/or A1PcS4 1 mg/kg i.v., lamp one hour after injection
  effect on tumour growth after PDT: moderate effect on tumour growth
[1]; Example 5.3, FIG. 6, high dose A1PcS4 5 mg/kg i.v. alone, lamp one hour after injection
  effect on tumour growth after PDT: strongly delayed growth
[1]; [6]
  effect on tumour growth after PDT: intermediate effect
